Measured values: patent publication US10071976B2, “Small molecule fatty acid synthase inhibitors” (Sanford Burnham Prebys Medical Discovery Institute, priority 2014, dated 2018)

Assays:
[1] = Plasma protein binding, human; type: in vitro ADME
Description: (§1) Plasma protein binding was a measure of a drug's efficiency to bind to the proteins within blood plasma. The less bound a drug is, the more efficiently it can traverse cell membranes or diffuse. […] In contrast, drugs that remain largely unbound in plasma are generally available for distribution to other organs and tissues.

[2] = Hepatic microsome stability, mouse; type: in vitro ADME
Description: The microsomal stability assay is commonly used to rank compounds according to their metabolic stability. This assay addresses the pharmacologic question of how long the parent compound will remain circulating in plasma within the body.

Plasma stability, mouse = type: in vitro ADME
Description: (§2) Plasma stability is a measure of the stability of small molecules and peptides in plasma and is an important parameter, which can strongly influence the in vivo efficacy of a test compound. Drug candidates are exposed to enzymatic processes (proteinases, esterases) in plasma, and they can undergo intramolecular rearrangement or bind irreversibly (covalently) to proteins.

[3] = Plasma protein binding, mouse; type: in vitro ADME; details: read-out: Plasma Protein Binding (% Bound) (converted)
Description: as §1

Plasma stability, human = type: in vitro ADME
Description: as §2

FASN thioesterase = molecular target: T1, FASN thioesterase (Homo sapiens, UniProt P49327); experiment: FP-PEG-TAMRA labeling of recombinant FASN thioesterase; type: binding; details: recombinant enzyme, 20 μM final, pH 7.8
T1 construct: label the active site of the FASN thioesterase and ACOT4
T1 sequence (P49327 2207-2511 limits assumed): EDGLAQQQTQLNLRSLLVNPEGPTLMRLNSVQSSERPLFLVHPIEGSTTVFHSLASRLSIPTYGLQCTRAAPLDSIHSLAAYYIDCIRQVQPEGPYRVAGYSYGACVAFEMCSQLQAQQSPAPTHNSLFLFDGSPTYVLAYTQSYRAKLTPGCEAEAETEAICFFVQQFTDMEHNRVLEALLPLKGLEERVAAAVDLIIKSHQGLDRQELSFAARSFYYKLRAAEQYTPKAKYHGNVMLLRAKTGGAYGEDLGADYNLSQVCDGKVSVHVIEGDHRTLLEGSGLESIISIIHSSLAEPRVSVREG
Experimental: Additionally, studies were performed to test the selectivity of Compounds 1, 16, 22, and 37 for the FASN thioesterase over its most closely related human homolog, the enzyme called ACOT4 (see FIG. 3). Both proteins were mixed and pretreated with the compound (20 μM final, pH 7.8) before addition of the fluorescent activity probe FP-PEG-TAMRA. Respective fluorescence of the bands was detected on a Hitachi flatbed scanner and a greyscale version used for quantitative analysis using ImageJ. Recombinant forms of each enzyme were incubated with compound 16, compound 1, compound 37, and compound 22. FP-TAMRA was included in this mixture to label the active site of the FASN thioesterase and ACOT4. […] These findings further attest to the high degree of selectivity of compounds 1, 16, 37 and 22 for the FASN thioesterase.

FASN = molecular target: T2, FASN (Homo sapiens, UniProt P49327); experiment: Competition with activity-based probe FP-PEG-TAMRA in PC-3 whole cell lysate: FASN; type: binding; details: PC-3 lysate, 20 μM final, pH 7.8
T2 construct: lysates of the prostate tumor line (PC3), which expresses FASN; endogenous in cells; host or cells: PC-3 prostate tumour cells (whole cell lysate)
T2 sequence (P49327 whole entry): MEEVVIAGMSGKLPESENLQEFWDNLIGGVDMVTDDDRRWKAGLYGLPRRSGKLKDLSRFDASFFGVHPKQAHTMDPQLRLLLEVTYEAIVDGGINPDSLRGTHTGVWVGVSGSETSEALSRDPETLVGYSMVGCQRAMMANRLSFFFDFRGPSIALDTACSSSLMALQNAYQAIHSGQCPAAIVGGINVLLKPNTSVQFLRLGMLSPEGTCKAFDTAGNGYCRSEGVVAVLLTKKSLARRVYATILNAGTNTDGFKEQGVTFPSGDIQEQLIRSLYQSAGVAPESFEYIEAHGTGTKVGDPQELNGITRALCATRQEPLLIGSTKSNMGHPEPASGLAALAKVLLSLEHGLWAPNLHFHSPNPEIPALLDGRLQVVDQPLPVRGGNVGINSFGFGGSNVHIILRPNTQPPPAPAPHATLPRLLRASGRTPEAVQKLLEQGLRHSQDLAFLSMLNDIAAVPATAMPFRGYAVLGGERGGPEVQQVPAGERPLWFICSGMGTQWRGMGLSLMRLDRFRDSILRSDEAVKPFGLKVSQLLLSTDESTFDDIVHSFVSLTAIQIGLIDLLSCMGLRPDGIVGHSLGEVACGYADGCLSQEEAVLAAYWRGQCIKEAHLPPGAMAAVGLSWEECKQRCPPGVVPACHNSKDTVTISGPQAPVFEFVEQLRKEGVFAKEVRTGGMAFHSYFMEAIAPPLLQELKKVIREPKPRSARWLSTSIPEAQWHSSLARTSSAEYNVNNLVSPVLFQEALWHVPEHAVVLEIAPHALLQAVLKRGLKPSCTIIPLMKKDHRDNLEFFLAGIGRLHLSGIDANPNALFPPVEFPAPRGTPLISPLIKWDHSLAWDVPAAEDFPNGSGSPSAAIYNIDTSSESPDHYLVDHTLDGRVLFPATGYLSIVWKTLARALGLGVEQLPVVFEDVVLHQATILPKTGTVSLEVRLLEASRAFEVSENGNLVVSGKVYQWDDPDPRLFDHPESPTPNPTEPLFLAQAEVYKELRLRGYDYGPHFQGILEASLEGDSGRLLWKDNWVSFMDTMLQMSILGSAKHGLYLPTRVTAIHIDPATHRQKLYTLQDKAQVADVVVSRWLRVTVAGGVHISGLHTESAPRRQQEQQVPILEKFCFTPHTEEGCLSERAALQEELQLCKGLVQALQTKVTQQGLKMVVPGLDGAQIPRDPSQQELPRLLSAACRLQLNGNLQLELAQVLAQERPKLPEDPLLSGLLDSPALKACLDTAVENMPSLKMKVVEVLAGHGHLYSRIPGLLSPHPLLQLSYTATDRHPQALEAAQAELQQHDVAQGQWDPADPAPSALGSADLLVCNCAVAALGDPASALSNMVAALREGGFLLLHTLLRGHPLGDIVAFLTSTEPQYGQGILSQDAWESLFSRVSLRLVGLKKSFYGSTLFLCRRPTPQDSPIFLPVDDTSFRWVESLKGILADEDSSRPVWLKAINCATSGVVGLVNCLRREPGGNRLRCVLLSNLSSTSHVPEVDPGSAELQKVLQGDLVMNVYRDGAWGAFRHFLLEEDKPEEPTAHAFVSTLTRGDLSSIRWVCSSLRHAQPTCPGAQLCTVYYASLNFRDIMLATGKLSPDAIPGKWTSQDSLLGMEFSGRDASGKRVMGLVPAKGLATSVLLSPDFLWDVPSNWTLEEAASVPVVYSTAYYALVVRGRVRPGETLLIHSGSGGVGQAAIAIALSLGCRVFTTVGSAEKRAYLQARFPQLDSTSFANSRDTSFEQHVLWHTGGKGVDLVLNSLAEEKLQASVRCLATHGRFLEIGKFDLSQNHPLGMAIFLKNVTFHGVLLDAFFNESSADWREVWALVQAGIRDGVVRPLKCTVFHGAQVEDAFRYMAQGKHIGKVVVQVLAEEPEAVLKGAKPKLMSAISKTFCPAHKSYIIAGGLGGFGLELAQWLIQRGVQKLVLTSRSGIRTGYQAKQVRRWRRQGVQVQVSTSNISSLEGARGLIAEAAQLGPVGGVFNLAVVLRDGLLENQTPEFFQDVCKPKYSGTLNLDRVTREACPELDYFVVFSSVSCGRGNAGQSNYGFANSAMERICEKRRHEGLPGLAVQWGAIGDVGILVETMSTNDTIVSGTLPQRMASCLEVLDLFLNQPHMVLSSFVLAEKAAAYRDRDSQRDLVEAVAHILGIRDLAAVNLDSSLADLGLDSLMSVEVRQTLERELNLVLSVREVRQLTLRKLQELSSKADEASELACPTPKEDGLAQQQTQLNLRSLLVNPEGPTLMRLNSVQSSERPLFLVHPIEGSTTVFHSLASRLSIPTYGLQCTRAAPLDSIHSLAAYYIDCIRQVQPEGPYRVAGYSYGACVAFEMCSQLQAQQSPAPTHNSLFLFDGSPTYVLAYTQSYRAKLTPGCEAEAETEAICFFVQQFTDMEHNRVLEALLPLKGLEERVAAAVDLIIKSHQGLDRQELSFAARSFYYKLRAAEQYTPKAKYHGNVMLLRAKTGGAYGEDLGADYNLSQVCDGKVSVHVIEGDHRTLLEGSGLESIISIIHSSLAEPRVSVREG
Experimental: Studies were conducted to determine the selectivity of compound 16 for FASN over other human thioesterases. The ability of the compounds to bind the FASN holoenzyme was tested by assessing their ability to compete for the binding of an activity-based probe that covalently attaches to the active site of the FASN thioesterase. Thioesterases are members of the serine hydrolase family, which also includes a number of other types of enzymes including proteases, dipeptidyl peptidases, epoxide hydrolases, etc. To help assess the selectivity of compound 16, an activity-based probe polyethyleneglycol-6-carboxytetramethyl-rhodamine (FP-PEG-TAMRA) that binds covalently to the catalytic serine of all serine hydrolases was used. These studies were done by assessing the ability of compound 16 to compete for the binding of the activity-based probe in whole cell lysates. Several analogs of compound 16 were tested in this assay using lysates of the prostate tumor line (PC3), which expresses FASN, along with numerous other serine hydrolases. The PC-3 lysate was incubated with 8 different FASN inhibitors, including compounds 1, 16 and 97. Then the activity-based probe (FP-PEG-TAMRA) was added to each sample to label the serine hydrolases in the lysate.

SMILES: CCC(CC)C(=O)Nc1nc(-c2ccc(S(=O)(=O)N3CCOCC3)cc2)cs1 [Compound 16, 2-Ethyl-N-(4-(4-(morpholinosulfonyl)phenyl)thiazol-2-yl)butanamide]
- fraction unbound at 1 μM ([1]; plasma, Human, 1 μM, read-out: Plasma Protein Binding (% Bound) (converted)): 0.034
- fraction unbound at 10 μM ([1]; plasma, Human, 10 μM, read-out: Plasma Protein Binding (% Bound) (converted)): 0.0253
- plasma protein binding ([1]; species not given): highly plasma protein bound
- Hepatic Microsome Stability (% Remaining at 1 hr) ([2]; Mouse, 1 hr): 6.37%
- liver microsome stability ([2]; mouse liver microsomes): poor stability
- Plasma Stability (% Remaining at 3 hrs) (Plasma stability, mouse; Mouse, 3 hrs): 100/100%
- plasma stability (Plasma stability, mouse; mouse plasma): good stability
- fraction unbound at 1 μM ([3]; 1 μM): 0.0381
- fraction unbound at 10 μM ([3]; 10 μM): 0.0337
- Plasma Stability (% Remaining at 3 hrs) (Plasma stability, human; Human, 3 hrs): 100/100%
- plasma stability (Plasma stability, human; human plasma): good stability
- binding of FP-TAMRA to the active site of the FASN thioesterase (FASN thioesterase): blocked the binding of FP-TAMRA
- inhibition of FASN (blocking of FP-TAMRA binding) (FASN): showed inhibition of FASN
